Earlier results, collected in patent US20200115357A1, “LIVER X RECEPTORS (LXR) MODULATORS” (Phenex-FXR GmbH, priority 2017, published 2020).

Tested on: LXR
Conditions: acid formed by ester cleavage of SR9238; cited from earlier work

Cc1cc(C)c(S(=O)(=O)N(Cc2ccc(-c3cccc(S(C)(=O)=O)c3)cc2)Cc2ccc(C(=O)O)o2)c(C)c1 [SR10389]
activity on LXR (in words): inactive
